# Reference: patent US9322066B2, “Predictors for cancer treatment” (priority 2011, dated 2016)
# Test system: relapsed or refractory, rituximab-naive or -sensitive follicular B-cell NHL
# Experiment: Time to progression (TTP), Vc-R vs rituximab study, by biomarker
# Type: in vivo, human
# Set-up: TTP Median: unit not given here
# From the text: Non-Hodgkin lymphoma (NHL) encompasses several unique malignant lymphoid disease entities that vary in clinical behavior, morphologic appearance, immunologic, and molecular phenotype. […] A randomized, open-label, active-controlled, multicenter, multinational, prospective study to compare the efficacy and safety of the combination of bortezomib and rituximab (Vc-R) to single-agent rituximab in subjects who have relapsed or refractory, rituximab-naive or -sensitive follicular B-cell NHL was performed.
# Subjects were centrally randomized to Treatment Groups A (Vc-R) or B (rituximab) in a 1:1 ratio taking into account the following stratification factors: • Follicular Lymphoma International Prognostic Index (FLIPI) score (low [0 or 1 factor], intermediate [2 factors], high [≧3 factors]); • Prior rituximab therapy (yes, no); • Time since last dose of anti-lymphoma therapy (≦1 year, >1 year); • Region (United States/Canada, European Union, Rest of World).
# For single-marker association analyses and pair-wise comparisons, a log rank test and Cox proportional hazard model was utilized for assessments of PFS, TTP, and OS between the treatment groups. Kaplan-Meier curves were utilized to estimate the distribution differences between groups in the time-to-event analyses. Comparison of the response rates between the treatment groups was conducted using the Fishers exact test. Single-marker association analyses were stratified by the covariates.
# For pair-wise comparison analysis, biomarker pairs were formed by combinations of two markers. A log rank test was utilized for assessments of PFS, TTP, and OS between the treatment groups in the subpopulation defined by biomarker pairs. Kaplan-Meier curves were utilized to estimate the distribution differences between groups in the time-to-event analyses. Comparison of the response rates between the treatment groups was conducted using the Fishers exact test. Methods of Analysis for the multiple biomarker comparison models can be found in section 4.6.
# [1] = 20S % NUCLEAR STAINING: 30-50, 2 Prior Lines of Therapy
# [2] = 20S % NUCLEAR STAINING: 60-70, Male
# [3] = 20S % POSITIVE CYTOPLASMIC SIGNAL: 0-20, >65 years old
# [4] = 20S % POSITIVE CYTOPLASMIC SIGNAL: 95-100, Ann Arbor Stage IV
# [5] = 20S INTENSITY CYTOPLASMIC SIGNAL: ≧3+, Male
# [6] = CD68 OVERALL POSITIVE: 0-25, 2 Prior Lines of Therapy
# [7] = CD68 OVERALL POSITIVE: 0-25, ≦1 year since last anti-lymphoma treatment
# [8] = CD68 OVERALL POSITIVE: 26-50, Ann Arbor Stage IV
# [9] = CD68 OVERALL POSITIVE: 26-50, High FLIPI Score
# [10] = CD68 OVERALL POSITIVE: 26-50, No High Tumor Burden
# [11] = CD68 OVERALL POSITIVE: 26-50, Rest of World
# [12] = CD68 OVERALL POSITIVE: 26-50, ≦65 years old
# [13] = CD68 POSITIVE FOLLICULAR: 0-25, >1 year since last anti-lymphoma treatment
# [14] = CD68 POSITIVE FOLLICULAR: 26-50, 1 Prior Line of Therapy
# [15] = CD68 POSITIVE FOLLICULAR: 26-50, High FLIPI Score
# [16] = CD68 POSITIVE FOLLICULAR: 26-50, No High Tumor Burden
# [17] = CD68 POSITIVE FOLLICULAR: 26-50, No Subgroup
# [18] = CD68 POSITIVE FOLLICULAR: 26-50, White
# [19] = CD68 POSITIVE FOLLICULAR: 26-50, ≦65 years old
# [20] = CD68 POSITIVE FOLLICULAR: 51-75, Female
# [21] = CD68 POSITIVE PERIFOLLICULAR: 0-25, 2 Prior Lines of Therapy
# [22] = CD68 POSITIVE PERIFOLLICULAR: 26-50, Male
# [23] = CD68 POSITIVE PERIFOLLICULAR: 26-50, Other
# [24] = CD68 POSITIVE PERIFOLLICULAR: >75, 1 Prior Line of Therapy
# [25] = CD68 POSITIVE PERIFOLLICULAR: >75, ≦65 years old
# [26] = P27 % NUCLEI POSITIVE: 30-50, Ann Arbor Stage IV
# [27] = P27 % NUCLEI POSITIVE: 60-70, Intermediate FLIPI Score
# [28] = P27 SIGNAL INTENSITY: ≧2+, 4 Prior Lines of Therapy
# [29] = P27 SIGNAL INTENSITY: ≧2+, Ann Arbor Stage IV
# [30] = P27 SIGNAL INTENSITY: ≧2+, Male
# [31] = P27 SIGNAL INTENSITY: ≧2+, ≦65 years old
# [32] = P65 % NUCLEAR STAINING: 0, Male
# [33] = P65 % NUCLEAR STAINING: 0, No Prior Rituximab Therapy
# [34] = P65 % NUCLEAR STAINING: 0, ≦65 years old
# [35] = P65 % POSITIVE CYTOPLASMIC SIGNAL: >90%, 1 Prior Line of Therapy
# [36] = P65 % POSITIVE CYTOPLASMIC SIGNAL: >90%, >1 year since last anti-lymphoma treatment
# [37] = P65 % POSITIVE CYTOPLASMIC SIGNAL: >90%, Ann Arbor Stage IV
# [38] = P65 % POSITIVE CYTOPLASMIC SIGNAL: >90%, High FLIPI Score
# [39] = P65 % POSITIVE CYTOPLASMIC SIGNAL: >90%, Male
# [40] = P65 % POSITIVE CYTOPLASMIC SIGNAL: >90%, No Prior Rituximab Therapy
# [41] = P65 % POSITIVE CYTOPLASMIC SIGNAL: >90%, No Subgroup
# [42] = P65 % POSITIVE CYTOPLASMIC SIGNAL: >90%, White
# [43] = P65 % POSITIVE CYTOPLASMIC SIGNAL: >90%, ≦65 years old
# [44] = P65 % POSITIVE CYTOPLASMIC SIGNAL: ≦90%, Intermediate FLIPI Score
# [45] = P65 INTENSITY CYTOPLASMIC SIGNAL: ≦1+, Ann Arbor Stage III
# [46] = P65 INTENSITY CYTOPLASMIC SIGNAL: ≧2+, High FLIPI Score
# [47] = P65 INTENSITY CYTOPLASMIC SIGNAL: ≧2+, ≦65 years old
# [48] = PSMB1/A171S: G/G, Ann Arbor Stage IV, IRC review
# [49] = PSMB1/A171S: G/G, High Tumor Burden, IRC review
substance,measurement,setting,value
rituximab,TTP Evt/N,[1],11/13
same,TTP Median,[1],239
same,TTP Evt/N,[2],13/16
same,TTP Median,[2],212
same,TTP Evt/N,[3],5/6
same,TTP Median,[3],278
same,TTP Evt/N,[4],43/56
same,TTP Median,[4],278
same,TTP Evt/N,[5],20/27
same,TTP Median,[5],280
same,TTP Evt/N,[6],6/8
same,TTP Median,[6],142
same,TTP Evt/N,[7],11/18
same,TTP Median,[7],424
same,TTP Evt/N,[8],44/56
same,TTP Median,[8],277
same,TTP Evt/N,[9],36/45
same,TTP Median,[9],277
same,TTP Evt/N,[10],37/54
same,TTP Median,[10],357
same,TTP Evt/N,[11],40/51
same,TTP Median,[11],277
same,TTP Evt/N,[12],57/77
same,TTP Median,[12],278
same,TTP Evt/N,[13],23/34
same,TTP Median,[13],357
same,TTP Evt/N,[14],26/39
same,TTP Median,[14],349
same,TTP Evt/N,[15],31/37
same,TTP Median,[15],205
same,TTP Evt/N,[16],29/44
same,TTP Median,[16],351
same,TTP Evt/N,[17],65/91
same,TTP Median,[17],277
same,TTP Evt/N,[18],53/77
same,TTP Median,[18],334
same,TTP Evt/N,[19],52/67
same,TTP Median,[19],270
same,TTP Evt/N,"CD68 POSITIVE FOLLICULAR: 51-75, 3 Prior Lines of Therapy",1/4
same,TTP Evt/N,[20],14/26
same,TTP Median,[20],708
same,TTP Evt/N,[21],7/8
same,TTP Median,[21],70
same,TTP Evt/N,[22],22/30
same,TTP Median,[22],239
same,TTP Evt/N,[23],4/4
same,TTP Median,[23],128
same,TTP Evt/N,[24],13/18
same,TTP Median,[24],275
same,TTP Evt/N,[25],17/23
same,TTP Median,[25],275
same,TTP Evt/N,[26],15/19
same,TTP Median,[26],278
same,TTP Evt/N,[27],6/13
same,TTP Median,[27],513
same,TTP Evt/N,[28],9/15
same,TTP Median,[28],348
same,TTP Evt/N,[29],64/85
same,TTP Median,[29],283
same,TTP Evt/N,[30],52/72
same,TTP Median,[30],280
same,TTP Evt/N,[31],104/153
same,TTP Median,[31],281
same,TTP Evt/N,[32],56/74
same,TTP Median,[32],280
same,TTP Evt/N,[33],77/102
same,TTP Median,[33],322
same,TTP Evt/N,[34],97/138
same,TTP Median,[34],287
same,TTP Evt/N,[35],56/89
same,TTP Median,[35],349
same,TTP Evt/N,[36],77/117
same,TTP Median,[36],357
same,TTP Evt/N,[37],67/87
same,TTP Median,[37],275
same,TTP Evt/N,[38],61/83
same,TTP Median,[38],239
same,TTP Evt/N,[39],54/72
same,TTP Median,[39],271
same,TTP Evt/N,[40],80/112
same,TTP Median,[40],345
same,TTP Evt/N,[41],139/204
same,TTP Median,[41],334
same,TTP Evt/N,[42],119/179
same,TTP Median,[42],345
same,TTP Evt/N,[43],108/154
same,TTP Median,[43],278
same,TTP Evt/N,[44],5/16
same,TTP Median,[44],567
same,TTP Evt/N,[45],7/11
same,TTP Median,[45],204
same,TTP Evt/N,[46],60/80
same,TTP Median,[46],275
same,TTP Evt/N,[47],105/152
same,TTP Median,[47],287
same,TTP Evt/N,[48],95/127
same,TTP Median,[48],278
same,TTP Evt/N,[49],110/147
same,TTP Median,[49],273
same,TTP Evt/N,"PSMB1/A171S: G/G, ≦65 years old, IRC review",131/198
